{
  "source": "patent US20260294863A1",
  "about": "“METHOD OF TREATING FIBROTIC-RELATED CONDITION” (YISSUM RESEARCH DEVELOPMENT COMPANY OF THE HEBREW …, priority 2023, published 2026)",
  "key": {"TNFα": {"test_system": "TNFα", "experiment": "Secretion of TNFα from BzATP/LPS-activated microglia (ELISA)", "format": "cell-based, Balb/C mice", "description": "Experiments were performed on primary microglial cells isolated from brains of neonatal Balb/C mice as previously described (Reichert and Rotshenker, 2003). The brains were stripped of their meninges and enzymatically dissociated. Cells were plated on Poly-L-lysine coated flasks for one week, re-plated for 1- to 2-hr on bacteriological plates and non-adherent cells were washed away. Microglia were propagated by incubation in 20% of medium, conditioned by the L-cell line that produces mouse-CSF. They were identified by morphology and positive immune-reactivity to P2y12, F4/80, complement receptor-3 and Galectin-3/MAC-2 (Reichert and Rotshenker 2003; Gitik et al. 2011).\nCytokines were measured as previously described (Shamash et al. 2002) using ELISA Max deluxe set (Biolegend, CA, USA) for secreted TNFα and IL-6 proteins and ELISA DuoSet (R&D systems, UK) for secreted and cell associated IL-1β, according to manufacturer's instructions.\nThe effect of ladostigil at concentrations of 1×10^−13 M to 1×10^−9 M on the secretion of cytokine proteins was assessed by adding it to microglia for 2 hr before LPS (0.75 μg/ml) and BzATP (400 μM). Other microglia were treated similarly with the steroid, budesonide as a reference standard at concentrations of 1× 10^−13 to 1× 10^−11 M. Measurements of cytokine secretion were performed 8 hrs after addition of LPS and BzATP. Since the levels of secreted IL-1β were still low, samples were concentrated 2- to 4-fold by an Amicon ultra-centrifugal filter device (Merck-Millipore, Ireland). ELISA was used to quantify the levels of cytokine proteins. Protein content in the microglia lysate was measured by Bradford and levels of cytokines were calculated and presented as pg/μg of microglial protein."}, "[1]": {"test_system": "primary mouse microglial cultures activated by lipopolysaccharide (LPS)", "conditions": "cited from earlier work"}, "[2]": {"test_system": "cells (oxidative stress induced by Sin 1)", "conditions": "cited from earlier work"}, "NFκB": {"test_system": "NFκB", "conditions": "LPS; cited from earlier work"}, "TGFβ": {"test_system": "TGFβ", "experiment": "TGFβ-containing cells in skin, bleomycin-induced skin sclerosis", "format": "in vivo, C57BL/6 mice", "conditions": "ladostigil 10 mg/kg/day + bleomycin; p<0.05", "description": "Male C57BL/6 mice aged 8 weeks were housed under pathogen-free conditions at a controlled temperature of 22-24° C., humidity and alternating 12-h light/dark cycles and provided with food and water ad libitum. Skin sclerosis was induced as described by Ravanetti et al, (2020). A small incision was made in the skin at the back caudal to the scapulae and subcutaneous pocket was created into which an Alzet micro-osmotic pump was implanted, and the incision closed with two stiches and a surgical clip. The pumps contained bleomycin, (delivered at the rate of 60 U/kg body weight) or saline (control) and were removed 10 days after implantation. The mice were monitored daily until they recovered completely and weighed twice weekly from the beginning of the experiment.\nLadostigil (10 mg/kg/day) was administered in the drinking fluid to 10 mice, housed 2/cage, from 3 days before bleomycin pump installation until the end of the experiment. The fluid intake of the mice was measured daily. The dose of ladostigil was adjusted accordingly. Bleomycin alone, (10 mice) and saline controls (6 mice) received regular drinking fluid."}, "[3]": {"test_system": "bleomycin-induced lung fibrosis", "experiment": "Lung fibrosis score / collagen content in bleomycin-induced lung fibrosis", "format": "in vivo, C57BL/6JOlaHsd mice", "description": "The animal model of bleomycin-induced lung fibrosis is widely used to characterize the potential inhibitory effect of newly developed drugs (Distler et al. 2019). Experiments were performed in C57BL/6JOlaHsd male and female mice aged 12-13 weeks. Male mice weighed 23-27.3 g and female mice, 19.4-21.1 g. They were housed under pathogen-free conditions, up to 6 per cage, in IVC cages under a controlled temperature of 22-24° C., humidity and alternating 12-h light/dark cycles and provided with food and water ad libitum. In order to minimize the stress of daily injection, ladostigil (5 mg/Kg/day) was administered by micro-osmotic pumps, implanted subcutaneously under ketamine/xylazine anesthesia, 5 days before administration of bleomycin, and delivered for 3 weeks to mice of each sex. Saline (2-3/sex) and bleomycin controls were anesthetized as described above. Bleomycin solution (0.25 mg/kg in 50 μl) was instilled into the lumen of the trachea as shown in a video by Ehrentraut et al. (2019). […] Mice were weighed daily and sacrificed on day 21. Bronchial fluid was collected as described in Ehrentraut et al. (2019). TNFα and IL-6 in the bronchial fluid lavage was measured by ELISA as described in the preceding section.\nSpecimens taken from the left lung were embedded in paraffin and cut into 5 μm-thick slices. They were put on slides and paraffin was removed. They were rehydrated and stained with a solution of Sirius red (100 mg/100 ml of [COMPOUND LEFT OUT], rinsed in distilled water until clear, dehydrated and mounted in a resinous medium. The red stain (also called “Sirius red” stain) is one of the best understood histochemical techniques. It relies on the birefringent properties of collagen and is much more specific than the other common collagen stains, Pulmonary fibrosis was evaluated on a score of 0-4 on 15-20 different fields taken from each lung section, according to the area and intensity of fibrotic staining in the field, excluding that in blood vessels. Two independent scientists blinded to the treatment performed the analysis. For TGFβ1 staining, slides were deparaffinized and rehydrated. Antigen retrieval was performed in Tris-based buffer, pH 9.0. Endogenous peroxidase activity was quenched by incubation in 3% H2O2. The tissue was permeabilized with Triton X-100 0.1% in PBS. After blocking, sections were incubated with primary antibody: diluted rabbit recombinant monoclonal TGFβ1 antibody (Abcam ab215715) over night, at 4° C. Slices were further incubated with the secondary antibody: ImmPRESS®-HRP Goat Anti-Rabbit IgG Polymer Detection Kit, Peroxidase (Vector labs VE-MP-7451-15) at room temperature. For color development, sections were incubated in peroxidase substrate solution DAB, at room temperature until desired stain intensity developed. They were then counterstained with filtered hematoxylin and cosin, cleared and mounted.\nExperiments were performed in C57BL/6JOlaHsd male mice aged 12-13 weeks as described for ladostigil. AN1284 (2.5 mg/kg/day) was administered by micro-osmotic pumps, implanted subcutaneously under ketamine/xylazine anesthesia, 5 days before administration of bleomycin and delivered for 3 weeks. Mice were weighed daily, sacrificed on day 21 and bronchial fluid was collected. Fibrosis was measured by staining with Sirius red as described for ladostigil. TNFα and IL-6 in the bronchial fluid lavage was measured by ELISA as described for ladostigil."}},
  "data": [
    {"smiles": "C#CCN[C@@H]1CCc2ccc(OC(=O)N(C)CC)cc21", "note": "[Ladostigil, 6-(N-ethyl, N-methylcarbamyloxy)-N propargyl-1 (R)-aminoindan hemitartrate]", "values": [
      {"measurement": "minimal effective concentration", "setting": "TNFα; Mus musculus, microglia, BzATP/LPS, medium containing BSA, 8 hrs, read-out: lowest concentration that significantly decreased TNFα secretion", "value": "1e-07", "unit": "µM"},
      {"measurement": "reduction of TNFα release", "setting": "TNFα; all concentrations tested, added 2 hrs before BzATP and LPS, 0.1% BSA, p<0.01", "value": "reduced the 3 cytokines significantly"},
      {"measurement": "IL1β gene expression", "setting": "[1]", "value": "decreased gene expression"},
      {"measurement": "IL-6 gene expression", "setting": "[1]", "value": "decreased gene expression"},
      {"measurement": "TNFα gene expression", "setting": "[1]", "value": "decreased gene expression"},
      {"measurement": "concentration preventing oxidative stress, fold lower than those inhibiting AChE or MAO", "setting": "[2]", "value": "20 -fold"},
      {"measurement": "oxidative stress in cells / fall in mitochondrial potential", "setting": "[2]; induced by Sin 1", "value": "prevented oxidative stress in cells"},
      {"measurement": "nuclear translocation of NFκB", "setting": "NFκB", "value": "decrease in the nuclear translocation of NFκB"},
      {"measurement": "number of TGFβ-containing cells in the skin", "setting": "TGFβ", "value": "significantly reduced the number of TGFβ-containing cells"},
      {"measurement": "fibrosis (overall conclusion)", "setting": "[3]; bleomycin-induced lung fibrosis murine model", "value": "shown to reduce fibrosis"},
      {"measurement": "collagen deposition (hydroxyproline)", "setting": "[3]; both sexes, 5 mg/Kg/day", "value": "reduced collagen deposition"},
      {"measurement": "fibrosis (score)", "setting": "[3]; females, 2.5 and 5 mg/Kg/day", "value": "significantly reduced fibrosis"},
      {"measurement": "fibrosis (score)", "setting": "[3]; males, 5 and 10 mg/kg/day", "value": "significantly reduced fibrosis"},
      {"measurement": "anti-inflammatory effect in bleomycin-induced lung fibrosis model", "setting": "[3]; mouse, in vivo", "value": "does not have an anti-inflammatory effect"}
    ]}
  ]
}
